Consider five molecules from patent EP2711009A1, “Compounds for use in treating or preventing primary and metastatic breast and prostate cancer” (Institut Univ. de Ciència i Tecnologia, S.A., priority 2012, dated 2014).

Like-named read-outs stand apart in the source and are kept apart here.

Assay type in all cases: cell-based
Assay [1] deals with MDA-MB-231(SA) breast cancer cells. The assay can be described thus: WST-1 tetrazolium dye proliferation assay, MDA-MB-231(SA). To be noted: for inhibition at 1 µM: Homo sapiens, read-out: proliferation inhibitory effect compared with 0.1% DMSO vehicle control group; for proliferation inhibitory effect compared with Gemcitabine: relative to Gemcitabine (= 0), negative = less inhibition than Gemcitabine. As to the method: (§1) Determination of the ability of compound of formula (I) and combinations between compound of formula (I) and certain therapeutic compounds described herein to inhibit the proliferation of target cells was assayed in vitro against breast and prostate tumour cells.
(§2) MCF-7 and LNCaP cells were purchased from ATCC. MDA-MB-231(SA) cells were obtained from Professor Theresa Guise. PNT1A cells were purchased from ECACC. The cells were grown in a subconfluent condition to maintain a logarithmic growth phase. The cells were dislodged for passage using trypsin-EDTA.
(§3) The proliferation of the cell lines was evaluated by using the commercial WST-1 proliferation measurement reagent. Cells from exponentially growing cultures were plated on the 96 well plates at the appropriate seeding density in the optimal medium to give logarithmic growth over the course of the assay. The plates with MCF-7, MDA-MB-231(SA), PC3M and PNT1A cells were incubated 24h at 37°C in a humidified CO2 atmosphere to allow for recovery from trypsinization before adding of test and control compounds. 1mM stock solutions were prepared from test compounds in DMSO (dimethylsulfoxide) and stored at -20°C. Control compounds Ara-C and Gemcitabine stock solutions were prepared in sterile water. Each test and control compound was diluted twice the final concentration in appropriate media. Half of the final well volume of each dilution was added in six parallels to plates containing cells. Required volume of DMSO was added into the vehicle and control compound dilutions to achieve the final concentration of 0.1% DMSO in all control and test compound wells. The plates were returned to 37°C in a humified CO2 atmosphere and incubated for 5 days. WST-1 reagent (2-(4-Iodophenyl)-3-(4-nitrophenyl)-5-(2,4-disulfophenyl)-2H-tetrazolium) was added to each well according manufacturer's instructions and the plates were returned to 37°C in a humidified CO2 atmosphere for 2 hours. Following incubation the absorbance at a wavelength of 450nm was measured from each well using a multilabel counter. The absorbance at wavelength 450nm correlates linearly to number of viable cells in the well.
(§4) The means and standard deviations for parallel samples were calculated and plotted as a graph.

Assay [2] deals with PC3M prostate cancer cells. The assay can be described thus: WST-1 tetrazolium dye proliferation assay, PC3M. Particulars: for inhibition at 1 µM: Homo sapiens, PC-3M, 120 h, read-out: proliferation inhibitory effect compared with 0.1% DMSO vehicle control group; for proliferation inhibitory effect compared with Gemcitabine: relative to Gemcitabine (= 0). How it is done:
as §1, §2, §3, §4

Assay [3] has as its system PNT1A immortalized normal prostate cells. The assay can be described thus: WST-1 tetrazolium dye proliferation assay, PNT1A normal cells. To be noted: Homo sapiens, 120 h, read-out: proliferation inhibitory effect compared with 0.1% DMSO vehicle control group. As to the method: as §1, §2, §3, §4
The test system of assay [4] is pancreatic cancer cells. Put plainly: Effect on pancreatic cancer cells (no method given). Particulars: other type of cancer cells such as pancreatic cancer cells.
[5] abbreviates: PNT1A immortalized normal prostate cell line, 5 days incubation, mean±SD, concentration not given (primary screen 1 microM).

In the case of `O=c1[nH]c(=O)n([C@H]2C[C@H](O)[C@@H](CO)O2)cc1F` [Floxuridine], the inhibition at 1 µM turned out to be 82.4 ± 2.6% in assay [1] (120 h, MDA-MB-231(SA), 5 days incubation, mean±SD, concentration not given (primary screen 1 microM)); 78 ± 3.4% in assay [2] (PC3M, 5 days incubation, mean±SD, concentration not given (primary screen 1 microM)); 88.3 ± 0.6% in assay [3] (setting [5]). Besides, the “proliferation inhibitory effect compared with Gemcitabine” value was -136.4±34.6% in assay [1] (MDA-MB-231(SA)) and 38.9±9.5% in assay [2] (PC3M).

For `CCSc1ncnc2c1ncn2[C@@H]1O[C@H](CO)[C@@H](O)[C@H]1O` [Compound I, 6-(Ethylthio)inosine], the inhibition at 1 µM in assay [1] (MDA-MB-231, 120 h) came out at 93.4 ± 1.3%; in assay [2] it was 73.6 ± 5.5%; in assay [3] (PNT1A), 26.2 ± 7.7%. Moreover, the figures for the “proliferation inhibitory effect compared with Gemcitabine” value in assay [1] (MDA-MB-231(SA)) and in assay [2] (PC3M) were 11.7±18.0% and 26.6±15.4%, respectively. Moreover, the “effect on pancreatic cancer cells” value in assay [4] was “no effect was detected”.

Regarding `Nc1ccn([C@@H]2O[C@H](CO)[C@@H](O)[C@@H]2O)c(=O)n1` [Ara-C], the inhibition at 1 µM is 80.4 ± 2.5% in assay [1] (MDA-MB-231, 120 h); 72.6 ± 3.5% in assay [2]; 66.5 ± 1.8% in assay [3] (setting [5]).

Regarding `Nc1ccn([C@@H]2O[C@H](CO)[C@@H](O)C2(F)F)c(=O)n1` [Gemcitabine, 2',2'-difluorodeoxycytidine], the inhibition at 1 µM in assay [1] (MDA-MB-231, 120 h) is 93.3 ± 0.9%; in assay [2], 67.5 ± 7.2%; in assay [3] (setting [5]), 98.8 ± 0.3%. In addition, the “proliferation inhibitory effect compared with Gemcitabine” value in assay [1] (MDA-MB-231(SA)) and in assay [2] (PC3M) was 0% each time.

Regarding `Nc1ncnc2[nH]ncc12` [Compound A, 4-Aminopyrazolo[3,4-d]pyrimidine], in assay [2] (PC3M), the “proliferation inhibitory effect compared with Gemcitabine” value was 70.1±2.7%.
